# Experimental data from patent US8497283B2, “Autotaxin inhibitors” (Merck Patent GmbH, priority 2009, dated 2013).
# Target: T1, recombinant autotaxin (Homo sapiens, UniProt Q13822)
# T1 construct: made in house; host or cells: Hi5 insect cells (baculovirus)
# Test: Autotaxin assay (Amplex Red fluorescence, LPC substrate)
# Assay type: biochemical
# Conditions: percent of uninhibited control (100%) at 1E−05 M compound
# Procedure: Autotaxin activity is measured indirectly by means of Amplex Red Reagent. In this course, Amplex Red is measured as fluorogenic indicator for generated H2O2. Autotaxin converts substrate lysophosphatidylcholine (LPC) to phosphocholine and lysophosphatidylic acid (LPA). After the conversion phosphocholine is reacted with alkaline phosphatase to obtain inorganic phosphate and choline. During the next step choline is oxidized with choline oxidase to yield betaine, whereby H2O2 is generated. H2O2 reacts with Amplex Red Reagent in the presence of peroxidase (Horseradish peroxidase) in an 1:1 stochiometry and yields highly fluorescent resorufin. The generated fluorescence is measured in a reaction-dependent kinetic mode in order to enable subtraction of fluorescence signals of possible other fluorescent compounds that are not part of the reaction from total measured fluorescence.
# 1.5 μl of a standard solution or of the compounds of the invention are dissolved in 20 mM Hepes pH 7.2 with maximally 7.7% DMSO in individual concentrations. The resulting solution is pre-incubated together with 10 μl (16 ng) of highly purified recombinant autotaxin in a black 384-hole microtiter plate for 30 min at 22° C.
# Thereafter, the reaction is started through the addition of 5 μl L-a-lysophosphatidyl-choline (LPC), whereby the final concentration of LPC is 75 μM. The mixture is incubated for 90 min. at 37° C. After the incubation Amplex Red Reagent, peroxidase (Horseradish peroxidase) and choline oxidase are added. The fluorescence is immediately measured at a wavelength of 612 nm with an excitation wavelength of 485 nm in a “Tecan Ultra multimode” fluorescence reader. The activity of autotaxin is indirectly calculated via the amount of detected generated H2O2.
# For IC50 analysis, ten serial 1:3 dilutions starting at 30 μM for each compound were run in duplicates.
# IC50 values were calculated on normalized data. For normalization, control wells were added to each assay plate and the signal of uninhibited control wells was set to 100%, whereas the signal inhibited by 500 μM C14 LPA, (Avanti Polar Lipids, Cat#857120P) was set to 0%. Curves were fitted and IC50 values calculated by the following model using proprietory analysis software: Y=Bottom+(100−Bottom)/(1+10^((Log IC50−X)*HillSlope))
# Where X is the logarithm of concentration. Y is the response;
# Y starts at Bottom and goes to Top with a sigmoid shape.
# Protein: Recombinant autotaxin (baculoviral Hi5 expression)
# Substrate: L-a-lysophosphatidyl choline (chicken egg); Avanti Polar Lipids #830071P
# Standard: C14 LPA, Avanti Polar Lipids, Cat#857120P
# Detection Reagent Amplex Red Reagent; Invitrogen #A12222; dissolved in 1.923 ml of DMSO peroxidase Type VI-A (horseradish), Sigma #P6782; dissolved in 7.45 ml of test buffer, Choline Oxidase; Sigma #C5896; dissolved in 2.47 ml test buffer
# Detection Reagent Mix: 1:100 dilution of Amplex Red Regent in test buffer
# Test buffer: 200 mM Tris-HCl, Merck, Cat #1.08219, pH 7.9; 0.1% BSA, lipid free, Roche Cat#775835
row,% CTRL (1E−05),Structure (SMILES)
1,66%,"NC(=O)c1c(NC(=O)Cc2ccc(Cl)cc2F)sc2c1CCN(Cc1ccccn1)C2 [Compound 17, 2-[2-(4-Chloro-2-fluoro-phenyl)-acetylamino]-6-pyridin-2-ylmethyl-4,5,6,7-tetrahydro-thieno[2,3-c]pyridine-3-carboxylic acid amide]"
2,88%,"NC(=O)c1c(NC(=O)Nc2ccc(Cl)cc2)sc2c1CCN(Cc1ccccn1)C2 [Compound 18, 2-[3-(4-Chloro-phenyl)-ureido]-6-pyridin-2-ylmethyl-4,5,6,7-tetrahydro-thieno[2,3-c]pyridine-3-carboxylic acid amide]"

# Same assay, conditions: ten serial 1:3 dilutions starting at 30 μM, duplicates; 75 μM LPC; values given as upper bounds
row,IC50,Structure (SMILES)
1,< 1 µM,"NC(=O)c1c(NC(=O)Nc2ccc(Cl)cc2)sc2c1CCN(C(=O)c1ccc3[nH]nnc3c1)C2 [Compound 1, 6-(1H-Benzotriazole-5-carbonyl)-2-[3-(4-chloro-phenyl)-ureido]-4,5,6,7-tetrahydro-thieno[2,3-c]pyridine-3-carboxylic acid amide]"
2,< 1 µM,"NC(=O)c1c(NC(=O)Nc2ccc(Cl)cc2)sc2c1CCN(C(=O)c1ccc3[nH]c(=O)oc3c1)C2 [Compound 2, 2-[3-(4-Chloro-phenyl)-ureido]-6-(2-oxo-2,3-dihydro-benzooxazole-6-carbonyl)-4,5,6,7-tetrahydro-thieno[2,3-c]pyridine-3-carboxylic acid amide]"
3,< 1 µM,"NC(=O)c1c(NC(=O)Nc2ccc(C(F)(F)F)cc2)sc2c1CCN(C(=O)c1ccc3[nH]nnc3c1)C2 [Compound 3, 6-(1H-Benzotriazole-5-carbonyl)-2-[3-(4-trifluoromethyl-phenyl)-ureido]-4,5,6,7-tetrahydro-thieno[2,3-c]pyridine-3-carboxylic acid amide]"
4,< 1 µM,"CC(C)c1ccc(NC(=O)Nc2sc3c(c2C(N)=O)CCN(C(=O)c2ccc4[nH]nnc4c2)C3)cc1 [Compound 4, 6-(1H-Benzotriazole-5-carbonyl)-2-[3-(4-isopropyl-phenyl)-ureido]-4,5,6,7-tetrahydro-thieno[2,3-c]pyridine-3-carboxylic acid amide]"
5,< 1 µM,"NC(=O)c1c(NC(=O)CCc2ccc(Cl)cc2)sc2c1CCN(C(=O)c1ccc3[nH]nnc3c1)C2 [Compound 5, 6-(1H-Benzotriazole-5-carbonyl)-2-[3-(4-chloro-phenyl)-propionylamino]-4,5,6,7-tetrahydro-thieno[2,3-c]pyridine-3-carboxylic acid amide]"
6,< 1 µM,"NC(=O)c1c(NC(=O)CCc2ccc(Cl)cc2)sc2c1CCN(C(=O)c1ccc3[nH]c(=O)oc3c1)C2 [Compound 6, 2-[3-(4-Chloro-phenyl)-propionylamino]-6-(2-oxo-2,3-dihydro-benzooxazole-6-carbonyl)-4,5,6,7-tetrahydro-thieno[2,3-c]pyridine-3-carboxylic acid amide]"
7,< 1 µM,"CC(C)c1ccc(NC(=O)Nc2sc3c(c2C(N)=O)CCN(C(=O)c2ccc4[nH]c(=O)oc4c2)C3)cc1 [Compound 7, 2-[3-(4-Isopropyl-phenyl)-ureido]-6-(2-oxo-2,3-dihydro-benzooxazole-6-carbonyl)-4,5,6,7-tetrahydro-thieno[2,3-c]pyridine-3-carboxylic acid amide]"
8,< 10 µM,"NC(=O)c1c(NC(=O)Nc2cc(Cl)cc(Cl)c2)sc2c1CCN(C(=O)c1ccc3[nH]c(=O)oc3c1)C2 [Compound 8, 2-[3-(3,5-Dichloro-phenyl)-ureido]-6-(2-oxo-2,3-dihydro-benzooxazole-6-carbonyl)-4,5,6,7-tetrahydro-thieno[2,3-c]pyridine-3-carboxylic acid amide]"
9,< 1 µM,"NC(=O)c1c(NC(=O)Cc2ccc(Cl)cc2F)sc2c1CCN(C(=O)c1ccc3[nH]nnc3c1)C2 [Compound 9, 6-(1H-Benzotriazole-5-carbonyl)-2-[2-(4-chloro-2-fluoro-phenyl)-acetylamino]-4,5,6,7-tetrahydro-thieno[2,3-c]pyridine-3-carboxylic acid amide]"
10,< 1 µM,"NC(=O)c1c(NC(=O)Cc2ccc(Cl)cc2F)sc2c1CCN(C(=O)c1ccc3[nH]c(=O)oc3c1)C2 [Compound 10, 2-[2-(4-Chloro-2-fluoro-phenyl)-acetylamino]-6-(2-oxo-2,3-dihydro-benzooxazole-6-carbonyl)-4,5,6,7-tetrahydro-thieno[2,3-c]pyridine-3-carboxylic acid amide]"
11,< 1 µM,"NC(=O)c1c(NC(=O)Cc2cccc(Cl)c2)sc2c1CCN(C(=O)c1ccc3[nH]nnc3c1)C2 [Compound 11, 6-(1H-Benzotriazole-5-carbonyl)-2-[2-(3-chloro-phenyl)-acetylamino]-4,5,6,7-tetrahydro-thieno[2,3-c]pyridine-3-carboxylic acid amide]"
12,< 10 µM,"NC(=O)c1c(NC(=O)Nc2cc(Cl)cc(Cl)c2)sc2c1CCN(C(=O)c1ccc3[nH]nnc3c1)C2 [Compound 12, 6-(1H-Benzotriazole-5-carbonyl)-2-[3-(3,5-dichloro-phenyl)-ureido]-4,5,6,7-tetrahydro-thieno[2,3-c]pyridine-3-carboxylic acid amide]"
13,< 1 µM,"NC(=O)c1c(NC(=O)Cc2cccc(Cl)c2)sc2c1CCN(C(=O)c1ccc3[nH]c(=O)oc3c1)C2 [Compound 13, 2-[2-(3-Chloro-phenyl)-acetylamino]-6-(2-oxo-2,3-dihydro-benzooxazole-6-carbonyl)-4,5,6,7-tetrahydro-thieno[2,3-c]pyridine-3-carboxylic acid amide]"
14,< 1 µM,"NC(=O)c1c(NC(=O)Cc2ccc(Cl)cc2)sc2c1CCN(C(=O)c1ccc3[nH]c(=O)oc3c1)C2 [Compound 14, 2-[2-(4-Chloro-phenyl)-acetylamino]-6-(2-oxo-2,3-dihydro-benzooxazole-6-carbonyl)-4,5,6,7-tetrahydro-thieno[2,3-c]pyridine-3-carboxylic acid amide]"
15,< 1 µM,"NC(=O)c1c(NC(=O)Nc2ccc(Cl)cc2F)sc2c1CCN(C(=O)c1ccc3[nH]nnc3c1)C2 [Compound 15, 6-(1H-Benzotriazole-5-carbonyl)-2-[3-(4-chloro-2-fluoro-phenyl)-ureido]-4,5,6,7-tetrahydro-thieno[2,3-c]pyridine-3-carboxylic acid amide]"
16,< 30 µM,"NC(=O)c1c(NC(=O)Cc2ccc(Cl)cc2F)sc2c1CCN(Cc1cccnc1)C2 [Compound 16, 2-[2-(4-Chloro-2-fluoro-phenyl)-acetylamino]-6-pyridin-3-ylmethyl-4,5,6,7-tetrahydro-thieno[2,3-c]pyridine-3-carboxylic acid amide]"
17,< 10 µM,"NC(=O)c1c(NC(=O)Nc2ccc(Cl)cc2)sc2c1CCN(C(=O)c1cccnc1)C2 [Compound 19, 2-[3-(4-Chloro-phenyl)-ureido]-6-(pyridine-3-carbonyl)-4,5,6,7-tetrahydro-thieno[2,3-c]pyridine-3-carboxylic acid amide]"
18,< 10 µM,"NC(=O)c1c(NC(=O)Nc2ccc(Cl)cc2)sc2c1CCN(Cc1ccncc1)C2 [Compound 20, 2-[3-(4-Chloro-phenyl)-ureido]-6-pyridin-4-ylmethyl-4,5,6,7-tetrahydro-thieno[2,3-c]pyridine-3-carboxylic acid amide]"
19,< 10 µM,"NC(=O)c1c(NC(=O)Cc2ccc(Cl)cc2F)sc2c1CCN(Cc1ccncc1)C2 [Compound 21, 2-[2-(4-Chloro-2-fluoro-phenyl)-acetylamino]-6-pyridin-4-ylmethyl-4,5,6,7-tetrahydro-thieno[2,3-c]pyridine-3-carboxylic acid amide]"
20,< 10 µM,"NC(=O)c1c(NC(=O)Cc2ccc(Cl)cc2F)sc2c1CCN(C(=O)Cc1cccnc1)C2 [Compound 22, 2-[2-(4-Chloro-2-fluoro-phenyl)-acetylamino]-6-(2-pyridin-3-yl-acetyl)-4,5,6,7-tetrahydro-thieno[2,3-c]pyridine-3-carboxylic acid amide]"
21,< 10 µM,"NC(=O)c1c(NC(=O)Cc2ccc(Cl)cc2F)sc2c1CCN(C(=O)Cc1ccncc1)C2 [Compound 23, 2-[2-(4-Chloro-2-fluoro-phenyl)-acetylamino]-6-(2-pyridin-4-yl-acetyl)-4,5,6,7-tetrahydro-thieno[2,3-c]pyridine-3-carboxylic acid amide]"
